In patent US10258610B2, “Pharmaceutical compositions comprising rifaximin, processes for their preparation and their use in the treatment of vaginal infections” (ALFASIGMA S.P.A., priority 2011, dated 2019):
Read-outs that look alike come from different tables or passages of the source.

Tests used:
[1] = tested on: Gardnerella vaginalis; assay type: in vivo, New Zealand rabbits (Oryctolagus cunicolis)
Experimental: The efficacy of vaginal compositions in rifaximin containing tablets and ovules was evaluated in an animal model of bacterial infection persistent in the rabbit.
The vaginal infection model was induced by inoculation of Gardnerella vaginalis isolated from women affected by bacterial vaginosis. The bacterial strains were grown in agar of bovine red blood cells at 37° C. by adding a DIFCO-C supplement and were kept under controlled atmosphere 5% CO2 for 24-48 hours.
For developing the model of animal infection, New Zealand rabbits (Oryctolagus cunicolis) having a weight comprised between 2 and 3 kg were used.
Before the infection, the animals had been treated with 1 ml 10% enrofloxacin solution for reducing the endogenous Lactobacilli and facilitating the growth of pathogenic agent. The infection was induced by inoculating in the animals vagina 1 ml of sterile saline solution containing 106-7 UFC (Unit Forming Colony) of Gardnerella vaginalis by using a 22-24G Teflon catheter. The presence of G. vaginalis in the animals was verified before the inoculation and 24 and 48 hours after the inoculation.
The animals were inoculated twice and thrice at time intervals of three days. After 14 days the last inoculation all animals were treated with 1 ml 10% enrofloxacin solution to verify the model sensitivity to antibiotics. The treatment healed the infection, thus confirming that the model can be used to evaluate the efficacy of antibiotics administered via the intravaginal route.
The presence of G. vaginalis was verified by vaginal buffer 1, 2, 4, 10 and 14 days after the last inoculation, putting the vaginal buffers in agar plates of bovine red blood cells with DIFCO-C supplement and growing them at 37° C. for 48 hours. The presence of G. vaginalis was verified by means of microscope (1000×) morphological identification and with Gram staining.
Three and seven days after the end of the rifaximin treatment, the presence of Gardnerella vaginalis was evaluated by means of vaginal buffers as previously described.
The vaginal buffers were considered positive if 10 or more colonies were counted, and the presence of malodorous vaginal discharges was the clinical sign of the occurred infection.

[2] = tested on: bacterial vaginosis; experiment: Phase II clinical trial, recovery by Amsel criteria and Nugent score; assay type: in vivo, human; settings: for Recovery of patients after relapse of bacterial vaginosis / Recovery of patients suffering from a first episode of bacterial vaginosis: visit V4 as titled, Amsel and Nugent
Source text: The example describes the clinical trial Phase II carried out on 114 patients affected by bacterial vaginosis, non-pregnant, having an age between 18 and 50 years. The diagnosis of bacterial vaginosis was based on Amsel criteria, wherein at least three criteria out of four must be positive, and on the Nugent score, wherein a score higher than four indicates the presence of pathogenic vaginal bacteria. The objectives of the trial were the evaluation of recovery from bacterial vaginosis both according to Amsel criteria (Amsel index <3) and according to Nugent score (Nugent index <4) 7-10 days after the end of the therapy. The secondary objectives of the trial were the recovery, separately evaluated according to Amsel criteria and to Nugent score, at the first control visit (V3), the continued recovery at the second control visit (V4) and the evaluation of the composition of vaginal microbiota by means of PCR and PCR-DGGE. In particular, the patients affected by bacterial vaginosis and not affected by contemporaneous viral, protozoan and fungal vaginal infections were assigned to one of the following treatment groups using a centralized randomization procedure and a double-blind experimental design: Group A: 21 patients receiving a vaginal tablet of rifaximin containing 100 mg rifaximin, prepared according to Example 2, once a day for five days, in the evening; Group B: 23 patients receiving a vaginal tablet of rifaximin containing 25 mg rifaximin, prepared according to Example 1, once a day for five days, in the evening; Group C: 19 patients receiving a vaginal tablet of rifaximin containing 100 mg rifaximin, prepared according to Example 2, once a day for two days, in the evening, plus a vaginal tablet of placebo, once a day for the remaining three days, in the evening; Group D: 22 patients receiving a placebo tablet prepared according to Example 1, wherein the rifaximin amount was replaced by lactose monohydrate, once a day for five days, in the evening. The study included a screening visit (V1) followed by a randomization visit after seven days (V2), by a first control visit 7-10 days after the end of the therapy (V3) and by a second and last control visit 28-35 days after the end of the therapy (V4). The evaluation of the attainment of the primary objective was carried out during visit V3, and the evaluation of the attainment of the secondary objectives was evaluated during the second and last visit (V4). Table 18 reports the percent recovery from the disease at the visit V3, according to both evaluation criteria, namely the clinical one (Amsel) and the microbiological (Nugent). The recovery was evaluated according to Nugent score by using a Gram stained slide and by evaluating the proportion between Lactobacilli and other bacteria such as Gram-variable or Gram-negative coccobacilli, Gram-variable curved bacilli.

[3] = visit V3, Group A: 1 tablet 100 mg × 5 days
[4] = visit V3, Group A: 1 tablet 100 mg × 5 days, listed as rifaximin
[5] = visit V3, Group B: 1 tablet 25 mg × 5 days
[6] = visit V3, Group B: 1 tablet 25 mg × 5 days, listed as rifaximin
[7] = visit V3, Group C: 1 tablet 100 mg × 2 days
[8] = visit V3, Group C: 1 tablet 100 mg × 2 days, listed as rifaximin
[9] = Group A: 1 tablet 100 mg × 5 days
[10] = Group B: 1 tablet 25 mg × 5 days
[11] = Group C: 1 tablet 100 mg × 2 days

CO[C@H]1/C=C/O[C@@]2(C)Oc3c(C)c(O)c4c(O)c(c5c(nc6cc(C)ccn65)c4c3C2=O)NC(=O)/C(C)=C\C=C\[C@H](C)[C@H](O)[C@@H](C)[C@@H](O)[C@@H](C)[C@H](OC(C)=O)[C@@H]1C [Rifaximin]
adverse event during treatment ([1]; rabbit, in vivo): No adverse event was observed | eradication of the infection (presence of Gardnerella vaginalis) ([1]; seven days after the end of the treatment, tablets and ovules, 1.5 to 12.5 mg): negative for 7 days after the end of the treatment | Eradication ([1]; vaginal ovules, rifaximin dose 1.5 mg, after 3 days): 100% | Eradication ([1]; vaginal ovules, rifaximin dose 1.5 mg, after 7 days): 100% | Eradication ([1]; vaginal ovules, rifaximin dose 3 mg, after 3 days): 88% | Eradication ([1]; vaginal ovules, rifaximin dose 3 mg, after 7 days): 100% | Eradication ([1]; vaginal ovules, rifaximin dose 6 mg, after 3 days): 88% | Eradication ([1]; vaginal ovules, rifaximin dose 6 mg, after 7 days): 100% | Eradication ([1]; vaginal ovules, rifaximin dose 12.5 mg, after 3 days): 100% | Eradication ([1]; vaginal ovules, rifaximin dose 12.5 mg, after 7 days): 100% | Eradication ([1]; vaginal tablets, rifaximin dose 1.5 mg, after 3 days): 88% | Eradication ([1]; vaginal tablets, rifaximin dose 1.5 mg, after 7 days): 100% | Eradication ([1]; vaginal tablets, rifaximin dose 3 mg, after 3 days): 63% | Eradication ([1]; vaginal tablets, rifaximin dose 3 mg, after 7 days): 100% | Eradication ([1]; vaginal tablets, rifaximin dose 6 mg, after 3 days): 88% | Eradication ([1]; vaginal tablets, rifaximin dose 6 mg, after 7 days): 100% | Eradication ([1]; vaginal tablets, rifaximin dose 12.5 mg, after 3 days): 100% | Eradication ([1]; vaginal tablets, rifaximin dose 12.5 mg, after 7 days): 100% | Patients with decrease Nugent score ≥8 points [2, 3]: 14.29% | Patients with decreased Nugent score ≤0 points (not responding) [2, 3]: 9.52% | Patients with decreased Nugent score ≥3 points [2, 3]: 52.4% | Patients with decreased Nugent score ≥5 points [2, 3]: 28.6% | Recovered patients, both criteria (Amsel and Nugent) [2, 3]: 25.9% | Recovered patients, clinical evaluation criteria (Amsel) [2, 3]: 66.7% | Recovered patients, microbiological evaluation criteria (Nugent) [2, 3]: 25.9% | Patients with decreased Nugent score ≥3 points [2, 4]: higher than 50% | Patients with decreased Nugent score ≥5 points [2, 4]: about 28% | Recovered patients, microbiological evaluation criteria (Nugent) [2, 4]: about 25% | Patients with decrease Nugent score ≥8 points [2, 5]: 17.39% | Patients with decreased Nugent score ≤0 points (not responding) [2, 5]: 17.39% | Patients with decreased Nugent score ≥3 points [2, 5]: 65.2% | Patients with decreased Nugent score ≥5 points [2, 5]: 47.8% | Recovered patients, both criteria (Amsel and Nugent) [2, 5]: 48.0% | Recovered patients, clinical evaluation criteria (Amsel) [2, 5]: 80.0% | Recovered patients, microbiological evaluation criteria (Nugent) [2, 5]: 48.0% | Patients with decreased Nugent score ≥3 points [2, 6]: higher than 65% | Patients with decreased Nugent score ≥5 points [2, 6]: about 48% | Recovered patients, microbiological evaluation criteria (Nugent) [2, 6]: 47% | Patients with decrease Nugent score ≥8 points [2, 7]: 15.79% | Patients with decreased Nugent score ≤0 points (not responding) [2, 7]: 36.84% | Patients with decreased Nugent score ≥3 points [2, 7]: 36.9% | Patients with decreased Nugent score ≥5 points [2, 7]: 26.3% | Recovered patients, both criteria (Amsel and Nugent) [2, 7]: 36.0% | Recovered patients, clinical evaluation criteria (Amsel) [2, 7]: 72.0% | Recovered patients, microbiological evaluation criteria (Nugent) [2, 7]: 36.0% | Patients with decreased Nugent score ≥3 points [2, 8]: higher than 30% | Patients with decreased Nugent score ≥5 points [2, 8]: about 26% | Recovered patients, microbiological evaluation criteria (Nugent) [2, 8]: about 36% | Recovered patients, both criteria (Amsel and Nugent) ([2]; visit V4, Group A: 1 tablet 100 mg × 5 days): 14.8% | Recovered patients, both criteria (Amsel and Nugent) ([2]; visit V4, Group B: 1 tablet 25 mg × 5 days): 28.0% | Recovered patients, both criteria (Amsel and Nugent) ([2]; visit V4, Group C: 1 tablet 100 mg × 2 days): 4.0% | Recovery of patients after relapse of bacterial vaginosis [2, 9]: 38.5% | Recovery of patients suffering from a first episode of bacterial vaginosis [2, 9]: 14.3% | Recovery of patients after relapse of bacterial vaginosis [2, 10]: 53.8% | Recovery of patients suffering from a first episode of bacterial vaginosis [2, 10]: 41.7% | Recovery of patients after relapse of bacterial vaginosis [2, 11]: 46.2% | Recovery of patients suffering from a first episode of bacterial vaginosis [2, 11]: 25.0%
